# Measured values as given in patent US7109338B2, “1,2-disubstituted 1,4-dihydro-4-oxoquinoline compounds” (priority 1999, dated 2006).
# What was measured:
# HeLa-S3 cells = assay: Cytotoxicity (MTT, without virus), HeLa-S3; conditions: HeLa-S3, no virus, incubated for 4 days
# HeLa cells = assay: Cytotoxicity (MTT, without virus), HeLa; conditions: HeLa, no virus, incubated for 4 days
# HRV 89 (41617-Gallo) = assay: Anti-rhinovirus activity (MTT), HRV89; assay type: cell-based, human rhinovirus; parameters: Anti-Rhinovirus activity, HRV89: unit not given here
# HRV61 (6669-CV39) = assay: Anti-rhinovirus spectrum (MTT), HRV61; assay type: cell-based, human rhinovirus; parameters: Anti-Rhinovirus activity, HRV61: unit not given here; conditions: HRV61
# HRV29 (5582) = assay: Anti-rhinovirus spectrum (MTT), HRV29; assay type: cell-based, human rhinovirus; parameters: Anti-Rhinovirus activity, HRV29: unit not given here; conditions: HRV29
# HRV10 (204-CV14) = assay: Anti-rhinovirus spectrum (MTT), HRV10; assay type: cell-based, human rhinovirus; parameters: Anti-Rhinovirus activity, HRV10: unit not given here; conditions: HRV10
# HRV 2 (HGP) = assay: Anti-rhinovirus activity (MTT), HRV2; assay type: cell-based, human rhinovirus; parameters: Anti-Rhinovirus activity, HRV2: unit not given here
# HRV31 (41F) = assay: Anti-rhinovirus spectrum (MTT), HRV31; assay type: cell-based, human rhinovirus; parameters: Anti-Rhinovirus activity, HRV31: unit not given here; conditions: HRV31
# [1] = system: coxsackievirus type B4 (CB4,JVB); assay: In vitro anti-picornavirus activity (MTT), CB4; assay type: cell-based; conditions: HeLa cells, MTT method, 37° C.
# HRV5 = assay: Anti-rhinovirus spectrum (MTT), HRV5; assay type: cell-based, human rhinovirus; parameters: Anti-Rhinovirus activity, HRV5: unit not given here; conditions: HRV5
# HeLa (Ohio strain)cells = assay: Cytotoxicity (MTT, without virus), HeLa(Ohio); conditions: HeLa(Ohio), no virus, incubated for 4 days
# HRV39 (209) = assay: Anti-rhinovirus spectrum (MTT), HRV39; assay type: cell-based, human rhinovirus; parameters: Anti-Rhinovirus activity, HRV39: unit not given here; conditions: HRV39
# HRV3(FEB) = assay: Anti-rhinovirus spectrum (MTT), HRV3; assay type: cell-based, human rhinovirus; parameters: Anti-Rhinovirus activity, HRV3: unit not given here; conditions: HRV3
# HRV41 (56110) = assay: Anti-rhinovirus spectrum (MTT), HRV41; assay type: cell-based, human rhinovirus; parameters: Anti-Rhinovirus activity, HRV41: unit not given here; conditions: HRV41
# [2] = system: Poliovirus type 1 (Polio 1, Sabin); assay: microbe, parasite or virus in culture; assay type: cell-based
# HRV8(MRH) = assay: Anti-rhinovirus spectrum (MTT), HRV8; assay type: cell-based, human rhinovirus; parameters: Anti-Rhinovirus activity, HRV8: unit not given here; conditions: HRV8
# [3] = system: human rhinovirus type 1B (HRV 1B, B632); assay: Anti-rhinovirus activity (MTT), HRV1B; assay type: cell-based; parameters: Anti-Rhinovirus activity, HRV1B: unit not given here
# HRV33 (1200) = assay: Anti-rhinovirus spectrum (MTT), HRV33; assay type: cell-based, human rhinovirus; parameters: Anti-Rhinovirus activity, HRV33: unit not given here; conditions: HRV33
# HRV21 (47) = assay: Anti-rhinovirus spectrum (MTT), HRV21; assay type: cell-based, human rhinovirus; parameters: Anti-Rhinovirus activity, HRV21: unit not given here; conditions: HRV21
# HRV14 (1059) = assay: Anti-rhinovirus activity (MTT), HRV14; assay type: cell-based, human rhinovirus; parameters: Anti-Rhinovirus activity, HRV14: unit not given here; conditions: for IC50 HRV 14: HeLa (Ohio strain) cells, MTT method, 33° C.
# HRV13 (353) = assay: Anti-rhinovirus spectrum (MTT), HRV13; assay type: cell-based, human rhinovirus; parameters: Anti-Rhinovirus activity, HRV13: unit not given here; conditions: HRV13
# [4] = system: coxsackievirus type A7 (CA7); assay: In vitro anti-picornavirus activity (MTT), CA7; assay type: cell-based; conditions: HeLa-S3 cells, MTT method, 37° C.
# HRV36 (342H) = assay: Anti-rhinovirus spectrum (MTT), HRV36; assay type: cell-based, human rhinovirus; parameters: Anti-Rhinovirus activity, HRV36: unit not given here; conditions: HRV36
# HRV1A (E28) = assay: Anti-rhinovirus activity (MTT), HRV1A; assay type: cell-based, human rhinovirus; parameters: Anti-Rhinovirus activity, HRV1A: unit not given here; conditions: for IC50 HRV 1A: HeLa (Ohio strain) cells, MTT method, 33° C.
# [5] = system: clinical isolate (89229T); assay: microbe, parasite or virus in culture; assay type: cell-based, human rhinovirus; parameters: Anti-Rhinovirus activity, Clinical isolated strain: unit not given here; conditions: Clinical isolated strain
# HRV32 (363) = assay: Anti-rhinovirus spectrum (MTT), HRV32; assay type: cell-based, human rhinovirus; parameters: Anti-Rhinovirus activity, HRV32: unit not given here; conditions: HRV32
# HRV50(A2#58) = assay: Anti-rhinovirus spectrum (MTT), HRV50; assay type: cell-based, human rhinovirus; parameters: Anti-Rhinovirus activity, HRV50: unit not given here; conditions: HRV50
# [6] = system: echovirus type 11 (Echo 11, Gregory); assay: In vitro anti-picornavirus activity (MTT), Echo 11; assay type: cell-based; conditions: HeLa-S3 cells, MTT method, 37° C.
# HRV16 (11757) = assay: Anti-rhinovirus spectrum (MTT), HRV16; assay type: cell-based, human rhinovirus; parameters: Anti-Rhinovirus activity, HRV16: unit not given here; conditions: HRV16
# [7] = Cytotoxicity (MTT, without virus), HeLa(Ohio); conditions: human, HeLa (Ohio strain) cells (uninfected)
# [8] = HeLa (Ohio strain) cells, MTT method, 33° C.
smiles,measurement,setting,value
CCn1c2c(c(=O)c3cc(C(C)C)ccc31)Cc1cc(OC)c(OC)cc1-2 [Compound B22],Cytotoxicity CC50 HeLa-S3,HeLa-S3 cells,>10 µg/mL
same,Cytotoxicity CC50 HeLa,HeLa cells,>10 µg/mL
same,"Anti-Rhinovirus activity, HRV89",HRV 89 (41617-Gallo); HRV89,0.36
same,IC50 HRV89,HRV 89 (41617-Gallo); [8],0.36 µg/mL
same,"Anti-Rhinovirus activity, HRV61",HRV61 (6669-CV39),0.34
same,"Anti-Rhinovirus activity, HRV29",HRV29 (5582),0.56
same,"Anti-Rhinovirus activity, HRV10",HRV10 (204-CV14),0.53
same,"Anti-Rhinovirus activity, HRV2",HRV 2 (HGP); HRV2,0.50
same,IC50 HRV2,HRV 2 (HGP); [8],0.55 µg/mL
same,"Anti-Rhinovirus activity, HRV31",HRV31 (41F),0.14
same,IC50 CB4,[1],1.3 µg/mL
same,"Anti-Rhinovirus activity, HRV5",HRV5,0.43
same,Cytotoxicity CC50 HeLa(Ohio),HeLa (Ohio strain)cells,>10 µg/mL
same,"Anti-Rhinovirus activity, HRV39",HRV39 (209),0.46
same,"Anti-Rhinovirus activity, HRV3",HRV3(FEB),0.97
same,"Anti-Rhinovirus activity, HRV41",HRV41 (56110),0.14
same,IC50 Polio 1,[2],0.54 µg/mL
same,"Anti-Rhinovirus activity, HRV8",HRV8(MRH),0.46
same,"Anti-Rhinovirus activity, HRV1B",[3]; HRV1B,0.44
same,IC50 HRV1B,[3]; [8],0.44 µg/mL
same,"Anti-Rhinovirus activity, HRV33",HRV33 (1200),0.16
same,"Anti-Rhinovirus activity, HRV21",HRV21 (47),0.18
same,"Anti-Rhinovirus activity, HRV14",HRV14 (1059),0.86
same,IC50 HRV 14,HRV14 (1059),0.86 µg/mL
same,"Anti-Rhinovirus activity, HRV13",HRV13 (353),0.13
same,IC50 CA7,[4],1.9 µg/mL
same,"Anti-Rhinovirus activity, HRV36",HRV36 (342H),0.25
same,"Anti-Rhinovirus activity, HRV1A",HRV1A (E28),>5.9
same,IC50 HRV 1A,HRV1A (E28),>5.9 µg/mL
same,"Anti-Rhinovirus activity, Clinical isolated strain",[5],0.43
same,"Anti-Rhinovirus activity, HRV32",HRV32 (363),0.19
same,"Anti-Rhinovirus activity, HRV50",HRV50(A2#58),0.17
same,IC50 Echo 11,[6],0.39 µg/mL
same,"Anti-Rhinovirus activity, HRV16",HRV16 (11757),1.2
CCn1c2c(c(=O)c3cc(C(C)C)ccc31)Cc1cc(OC)ccc1-2 [Compound B10],Cytotoxicity CC50 HeLa-S3,HeLa-S3 cells,>2.5 µg/mL
same,Cytotoxicity CC50 HeLa,HeLa cells,>2.5 µg/mL
same,"Anti-Rhinovirus activity, HRV89",HRV 89 (41617-Gallo); HRV89,0.33
same,IC50 HRV89,HRV 89 (41617-Gallo); [8],0.33 µg/mL
same,"Anti-Rhinovirus activity, HRV61",HRV61 (6669-CV39),0.24
same,"Anti-Rhinovirus activity, HRV29",HRV29 (5582),0.44
same,"Anti-Rhinovirus activity, HRV10",HRV10 (204-CV14),0.41
same,"Anti-Rhinovirus activity, HRV2",HRV 2 (HGP); HRV2,0.16
same,IC50 HRV2,HRV 2 (HGP); [8],0.16 µg/mL
same,"Anti-Rhinovirus activity, HRV31",HRV31 (41F),0.15
same,IC50 CB4,[1],0.57 µg/mL
same,"Anti-Rhinovirus activity, HRV5",HRV5,0.24
same,Cytotoxicity CC50 HeLa(Ohio),HeLa (Ohio strain)cells,>2.5 µg/mL
same,"Anti-Rhinovirus activity, HRV39",HRV39 (209),0.39
same,"Anti-Rhinovirus activity, HRV3",HRV3(FEB),0.48
same,"Anti-Rhinovirus activity, HRV41",HRV41 (56110),0.007
same,IC50 Polio 1,[2],0.17 µg/mL
same,"Anti-Rhinovirus activity, HRV8",HRV8(MRH),0.20
same,"Anti-Rhinovirus activity, HRV1B",[3]; HRV1B,0.25
same,IC50 HRV1B,[3]; [8],0.25 µg/mL
same,"Anti-Rhinovirus activity, HRV33",HRV33 (1200),0.11
same,"Anti-Rhinovirus activity, HRV21",HRV21 (47),0.16
same,"Anti-Rhinovirus activity, HRV14",HRV14 (1059),0.52
same,IC50 HRV 14,HRV14 (1059),0.52 µg/mL
same,"Anti-Rhinovirus activity, HRV13",HRV13 (353),0.12
same,IC50 CA7,[4],1.4 µg/mL
same,"Anti-Rhinovirus activity, HRV36",HRV36 (342H),0.17
same,"Anti-Rhinovirus activity, HRV1A",HRV1A (E28),1.9
same,IC50 HRV 1A,HRV1A (E28),1.9 µg/mL
same,"Anti-Rhinovirus activity, Clinical isolated strain",[5],0.75
same,"Anti-Rhinovirus activity, HRV32",HRV32 (363),0.36
same,"Anti-Rhinovirus activity, HRV50",HRV50(A2#58),0.10
same,IC50 Echo 11,[6],0.14 µg/mL
same,"Anti-Rhinovirus activity, HRV16",HRV16 (11757),0.57
"Cc1c(-c2ccccc2)n(-c2ccc(Cl)cc2)c2ccc(C(C)C)cc2c1=O [Compound A324, 1-(4-chlorophenyl)-2-phenyl-3-methyl-6-isopropyl-1,4-dihydro-4-oxoquinoline]",IC50,"HRV 89 (41617-Gallo); Human rhinovirus sp., HRV89, HeLa (Ohio strain) cells, MTT method, 33° C., read-out: IC50 HRV89",0.046 µg/mL
same,IC50,"HRV 2 (HGP); Human rhinovirus sp., HRV2, HeLa (Ohio strain) cells, MTT method, 33° C., read-out: IC50 HRV2",0.12 µg/mL
same,CC50 at 4 days,[7],> 1 µg/mL
same,IC50,"[3]; Human rhinovirus sp., HRV1B, HeLa (Ohio strain) cells, MTT method, 33° C., read-out: IC50 HRV1B",0.53 µg/mL
same,melting point,,233 to 235 °C
